Measurements from publication PMC10294756 (Journal of Enzyme Inhibition and Medicinal Chemistry, 2023).
Where two headings read alike, the source gives them in different places.

How the values were obtained:
HepG2 = assay: MTT assay, HepG2 cells; assay type: cell-based, human; settings: for IC50: read-out: IC50 HepG2
HuH7 = assay: MTT assay, HuH7 cells; assay type: cell-based, human; settings: read-out: IC50 HuH7
SMMC-7721 = assay: MTT assay, SMMC-7721 cells; assay type: cell-based, human; settings: read-out: IC50 SMMC-7721
[1] = test system: HCC cell lines (HepG2, HuH7, and SMMC-7721); assay: MTT assay, results stated over the three HCC cell lines; assay type: cell-based; settings: Homo sapiens, 48 h, read-out: IC50 against HCC cells (span over cell lines)
LO2 = assay: MTT assay, normal hepatocyte LO2; assay type: cell-based, human
[2] = Homo sapiens, L02, 48 h, read-out: IC50 LO2, normal liver cell line, MTT, 48 h
[3] = read-out: IC50 LO2, normal liver cell line, MTT, 48 h
[4] = MTT, 48 h, mean ± SD of three experiments

IC50 (HepG2; Homo sapiens, HepG2, 48 h) [µM] | IC50 (HuH7; Homo sapiens, Huh-7, 48 h) [µM] | IC50 (SMMC-7721; Homo sapiens, SMMC-7721, 48 h) [µM] | IC50 [1] [µM] | SMILES | IC50 (LO2; [2]) [µM] | IC50 (LO2; [3]) [µM] | IC50 (HepG2; [4]) [µM] | IC50 (HuH7; [4]) [µM] | IC50 (SMMC-7721; [4]) [µM] | effect on the inhibition of HepG2 cell proliferation by TMHA37 (HepG2; 20 μM CDIM8, 5 μM TMHA37, 48 h, MTT)
30.8 ± 2.52 | 31.7 ± 3.6 | 52.8 ± 1.56 | 30.8 to 52.8 | Cc1cc(Nc2ccc(C(=O)N/N=C/c3ccsc3)cc2)c2cccc(O)c2n1 [7A, (E)-4-((8-hydroxy-2-methylquinolin-4-yl)amino)-N'-(thiophen-3-ylmethylene)benzohydrazide] |  |  |  |  |  | 
16.2 ± 1.53 | 18 ± 1.26 | 26.1 ± 1 | < 30 | Cc1cc(Nc2ccc(C(=O)N/N=C/c3sccc3Br)cc2)c2cccc(O)c2n1 [7B, (E)-N'-((3-bromothiophen-2-yl)methylene)-4-((8-hydroxy-2-methylquinolin-4-yl)amino)benzohydrazide] | > 90 |  |  |  |  | 
16.4 ± 0.7 | 21.2 ± 2.28 | 16 ± 0.54 | < 30 | Cc1cc(Nc2ccc(C(=O)N/N=C/c3cc(Br)cs3)cc2)c2cccc(O)c2n1 [7C, (E)-N'-((4-bromothiophen-2-yl)methylene)-4-((8-hydroxy-2-methylquinolin-4-yl)amino)benzohydrazide] | 21 ± 1.18 |  |  |  |  | 
17.7 ± 0.3 | 25.6 ± 1.81 | 22.94 ± 0.03 |  | CSc1ccc(/C=N/NC(=O)c2ccc(Nc3cc(C)nc4c(O)cccc34)cc2)cc1 [7E, (E)-4-((8-hydroxy-2-methylquinolin-4-yl)amino)-N'-(4-(methylthio)benzylidene)benzohydrazide] | > 90 |  |  |  |  | 
13.6 ± 2.14 | 22.3 ± 1.88 | 17.9 ± 1.03 |  | Cc1cc(Nc2ccc(C(=O)N/N=C/c3ccccc3Cl)cc2)c2cccc(O)c2n1 [7F, (E)-N'-(2-chlorobenzylidene)-4-((8-hydroxy-2-methylquinolin-4-yl)amino)benzohydrazide] | 15 ± 2.16 |  |  |  |  | 
15.5 ± 1.45 | 6.88 ± 2.04 | 20.6 ± 2.56 |  | Cc1cc(Nc2ccc(C(=O)N/N=C/c3cccc(C(F)(F)F)c3)cc2)c2cccc(O)c2n1 [7G, (E)-4-((8-hydroxy-2-methylquinolin-4-yl)amino)-N'-(3-(trifluoromethyl)benzylidene)benzohydrazide] | 19.9 ± 2.01 |  |  |  |  | 
18.1 ± 0.98 | 23.3 ± 0.33 | 27.68 ± 0.25 |  | Cc1cc(Nc2ccc(C(=O)N/N=C/c3ccc(C(F)(F)F)cc3)cc2)c2cccc(O)c2n1 [7H, (E)-4-((8-hydroxy-2-methylquinolin-4-yl)amino)-N'-(4-(trifluoromethyl)benzylidene)benzohydrazide] | > 90 |  |  |  |  | 
28.3 ± 1.17 | 12.8 ± 0.36 | 33.9 ± 3.58 |  | C#Cc1ccc(/C=N/NC(=O)c2ccc(Nc3cc(C)nc4c(O)cccc34)cc2)cc1 [7I, (E)-N'-(4-ethynylbenzylidene)-4-((8-hydroxy-2-methylquinolin-4-yl)amino)benzohydrazide] |  |  |  |  |  | 
27.5 ± 2.12 | 26 ± 0.54 | 37.2 ± 2.23 |  | COc1cc(/C=N/NC(=O)c2ccc(Nc3cc(C)nc4c(O)cccc34)cc2)cc(OC)c1 [7J, (E)-N’-(3,5-dimethoxybenzylidene)-4-((8-hydroxy-2-methylquinolin-4-yl)amino)benzohydrazide] |  |  |  |  |  | 
20.1 ± 1.18 | 34.6 ± 2.97 | 28.2 ± 2.06 |  | COc1ccc(F)c(/C=N/NC(=O)c2ccc(Nc3cc(C)nc4c(O)cccc34)cc2)c1 [7K, (E)-N'-(2-fluoro-5-methoxybenzylidene)-4-((8-hydroxy-2-methylquinolin-4-yl)amino)benzohydrazide] |  |  |  |  |  | 
21 ± 1.51 | 15.9 ± 2.8 | 25.4 ± 1.63 |  | Cc1cc(Nc2ccc(C(=O)N/N=C/c3cccc(F)c3F)cc2)c2cccc(O)c2n1 [7L, (E)-N'-(2,3-difluorobenzylidene)-4-((8-hydroxy-2-methylquinolin-4-yl)amino)benzohydrazide] | 25 ± 3.16 |  |  |  |  | 
15.8 ± 3.68 | 23.8 ± 1.82 | 18.2 ± 1.94 | 15.8 to 27.6 | Cc1cc(Nc2ccc(C(=O)N/N=C/c3ccc(Br)c(F)c3)cc2)c2cccc(O)c2n1 [7M, (E)-N'-(4-bromo-3-fluorobenzylidene)-4-((8-hydroxy-2-methylquinolin-4-yl)amino)benzohydrazide] | > 90 |  |  |  |  | 
27.6 ± 0.81 | 15.4 ± 2.09 | 21.1 ± 1.01 | 15.8 to 27.6 | Cc1cc(Nc2ccc(C(=O)N/N=C/c3ccc(F)c(Br)c3)cc2)c2cccc(O)c2n1 [7N, (E)-N'-(3-bromo-4-fluorobenzylidene)-4-((8-hydroxy-2-methylquinolin-4-yl)amino)benzohydrazide] | > 90 |  |  |  |  | 
15.7 ± 1.31 | 13.7 ± 0.61 | 16.9 ± 1.97 |  | Cc1cc(Nc2ccc(C(=O)N/N=C/c3ccc(F)cc3Br)cc2)c2cccc(O)c2n1 [7O, (E)-N'-(2-bromo-4-fluorobenzylidene)-4-((8-hydroxy-2-methylquinolin-4-yl)amino)benzohydrazide] | 69.2 ± 4.58 |  |  |  |  | 
7.78 ± 1.33 | 19.3 ± 1.49 | 8.82 ± 0.41 | 7.78 to 19.3 | Cc1cc(Nc2ccc(C(=O)N/N=C/c3cc(C(F)(F)F)ccc3F)cc2)c2cccc(O)c2n1 [7P, (E)-N'-(2-fluoro-5-(trifluoromethyl)benzylidene)-4-((8-hydroxy-2-methylquinolin-4-yl)amino)benzohydrazide] | 18 ± 1.55 |  |  |  |  | 
12.7 ± 1.61 | 29.2 ± 3.24 | 21.6 ± 1.13 |  | Cc1cc(Nc2ccc(C(=O)N/N=C/c3ccc(F)c(C(F)(F)F)c3)cc2)c2cccc(O)c2n1 [7Q, (E)-N'-(4-fluoro-3-(trifluoromethyl)benzylidene)-4-((8-hydroxy-2-methylquinolin-4-yl)amino)benzohydrazide] | 4.82 ± 0.67 |  |  |  |  | 
30 ± 0.92 | 32.2 ± 4.3 | 45.8 ± 0.64 | 30 to 45.8 | Cc1cc(Nc2ccc(C(=O)N/N=C/c3cccc(Br)n3)cc2)c2cccc(O)c2n1 [7R, (E)-N'-((6-bromopyridin-2-yl)methylene)-4-((8-hydroxy-2-methylquinolin-4-yl)amino)benzohydrazide] |  |  |  |  |  | 
15.6 ± 1.65 | 16.2 ± 0.66 | 22.3 ± 0.98 | 15 to 23.9 | Cc1cc(Nc2ccc(C(=O)N/N=C/c3ccc4ccccc4c3)cc2)c2cccc(O)c2n1 [7S, (E)-4-((8-hydroxy-2-methylquinolin-4-yl)amino)-N'-(naphthalen-2-ylmethylene)benzohydrazide] | > 60 | 66.3 ± 8.68 |  |  |  | 
15 ± 4.75 | 20.9 ± 2.46 | 23.9 ± 2.16 | 15 to 23.9 | COc1ccc(/C=N/NC(=O)c2ccc(Nc3cc(C)nc4c(O)cccc34)cc2)c2ccccc12 [7T, (E)-4-((8-hydroxy-2-methylquinolin-4-yl)amino)-N'-((4-methoxynaphthalen-1-yl)methylene)benzohydrazide] | > 60 | 60.7 ± 0.98 |  |  |  | 
17.6 ± 1.09 | 30.9 ± 3.39 | 19.9 ± 0.94 |  | Cc1cc(Nc2ccc(C(=O)N/N=C/c3cc4ccccc4nc3Cl)cc2)c2cccc(O)c2n1 [7U, (E)-N'-((2-chloroquinolin-3-yl)methylene)-4-((8-hydroxy-2-methylquinolin-4-yl)amino)benzohydrazide] | 18 ± 1.29 |  |  |  |  | 
13.7 ± 2.85 | 20.4 ± 2.75 | 21.7 ± 1.96 |  | Cc1cc(Nc2ccc(C(=O)N/N=C/c3csc4ccccc34)cc2)c2cccc(O)c2n1 [7V, (E)-N'-(benzo[b]thiophen-3-ylmethylene)-4-((8-hydroxy-2-methylquinolin-4-yl)amino)benzohydrazide] | 3.06 ± 0.11 |  |  |  |  | 
 |  |  |  | N.N.[Cl][Pt][Cl] [CDDP, Cisplatinum, reference compound] |  | 4.23 ± 0.52 | 2.21 ± 0.35 | 3.69 ± 0.55 | 1.58 ± 0.08 | 
 |  |  |  | Oc1ccc(C(c2c[nH]c3ccccc23)c2c[nH]c3ccccc23)cc1 [CDIM8, reference compound] |  |  |  |  |  | significantly reversed the inhibitory effect of TMHA37 on HepG2 cell proliferation

SMILES | IC50 (HepG2; Homo sapiens, HepG2, 48 h) [µM] | IC50 (HuH7; Homo sapiens, Huh-7, 48 h) [µM] | IC50 (SMMC-7721; Homo sapiens, SMMC-7721, 48 h) [µM] | IC50 [1] [µM] | IC50 (LO2; [2]) [µM] | IC50 (LO2; [3]) [µM] | IC50 (HepG2; [4]) [µM] | IC50 (HuH7; [4]) [µM] | IC50 (SMMC-7721; [4]) [µM] | effect on the inhibition of HepG2 cell proliferation by TMHA37 (HepG2; 20 μM CDIM8, 5 μM TMHA37, 48 h, MTT)
CC1=C(O)C(=O)C=C2C1=CC=C1[C@@]2(C)CC[C@@]2(C)[C@@H]3C[C@](C)(C(=O)O)CC[C@]3(C)CC[C@]12C [Celastrol, reference compound] | 18.6 ± 1.01 | 34.9 ± 2.21 | 16 ± 3.28 |  |  |  |  |  |  | 
